Assay results published in EP3418270A1, “NOVEL BIPHENYLSULFOXIMINES AS ALLOSTERIC MODULATORS OF THE DOPAMINE D1 RECEPTOR” (Universidad Complutense De Madrid, priority 2017, dated 2018).

Key:
[1] = target: T1, human dopamine D1 receptor (Homo sapiens, UniProt P21728); assay: Agonist effect at human dopamine D1 receptors: cAMP (HTRF) in SK-N-MC cells without dopamine; type: cell-based; design: endogenously expressed human D1 receptors in SK-N-MC cell line; host or cells: SK-N-MC human neuroblastoma cells; conditions: in the absence of dopamine, cAMP (Figure 2)
T1 sequence (P21728 whole entry): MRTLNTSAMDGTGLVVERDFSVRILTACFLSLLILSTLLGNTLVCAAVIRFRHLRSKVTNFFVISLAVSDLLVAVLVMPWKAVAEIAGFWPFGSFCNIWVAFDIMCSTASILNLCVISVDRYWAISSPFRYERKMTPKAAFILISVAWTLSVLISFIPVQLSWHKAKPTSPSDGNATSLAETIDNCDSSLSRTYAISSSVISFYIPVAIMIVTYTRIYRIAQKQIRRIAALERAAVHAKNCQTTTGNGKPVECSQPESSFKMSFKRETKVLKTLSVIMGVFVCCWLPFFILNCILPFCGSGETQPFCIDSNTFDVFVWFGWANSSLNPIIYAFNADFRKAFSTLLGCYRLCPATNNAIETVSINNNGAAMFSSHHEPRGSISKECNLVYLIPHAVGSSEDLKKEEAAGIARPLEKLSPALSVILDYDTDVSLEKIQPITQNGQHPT
Experimental: SK-N-MC cells seeded into a black 96-well plate (1×10^4 cells/well) in Optimem containing 500 µM IBMX were treated with the test compounds for 15 min at 25°C. Treated cells were lysed and the cAMP concentration was measured by homogeneous time-resolved fluorescence energy transfer (HTRF; Cisbio Kit). HTRF was read in a Tecan M1000 Genius Pro reader (λexcitation = 320 nm, λemission = 620 nm and 665 nm, 30 flashes).
(§1) Data were normalized to dopamine maximum effect and fitted to a 4-parameter logistic equation Prism v2.1 (GraphPad Inc).

human D1 receptors = target: T2, human D1 receptors (Homo sapiens, UniProt P21728); assay: Allosteric modulation of human dopamine D1 receptors: dopamine-induced cAMP production (HTRF) in SK-N-MC cells; type: cell-based; conditions: for Potentiation (%) at 5 µM / Potentiation (%) at 10 µM: potentiation of dopamine Emax; for Potentiation (%) at 5 µM: compound at 5 µM (values marked *); for Potentiation (%) at 10 µM: compound at 10 µM
T2 construct: endogenously expressed human D1 receptors in SK-N-MC cell line; host or cells: SK-N-MC human neuroblastoma cells
T2 sequence (P21728 whole entry): as above
Experimental: Functional studies at human D1 receptors were carried out in endogenously expressed human D1 receptors in SK-N-MC cell line (ATCC). SK-N-MC cells were thawed and seeded into a black 96-well plate (1×10^4 cells/well) in Optimem containing 500 µM IBMX.
Cells were treated with the test compounds for 15 min at 25°C and dopamine was added to the corresponding wells and incubated for additional 15 min at 25°C. Treated cells were lysed and the cAMP concentration was measured by homogeneous time-resolved fluorescence energy transfer (HTRF; Cisbio Kit). HTRF was read in a Tecan M1000 Genius Pro reader (λexcitation = 320 nm, λemission = 620 nm and 665 nm, 30 flashes).
as §1
If the observed effect is dose-dependent, compounds were then tested in the cAMP assay, this time maintaining a fixed concentration of dopamine (=EC70) while increasing the concentration of the compound, and the potentiation of the dopamine effect was measured.

human D5 receptors = human D5 receptors (Homo sapiens, UniProt P21918); assay: Functional assay at human D5 receptors: cAMP Hunter express DRD5 assay; type: cell-based; conditions: cAMP formation, Figure 6
human D5 receptors, sequence (P21918 whole entry): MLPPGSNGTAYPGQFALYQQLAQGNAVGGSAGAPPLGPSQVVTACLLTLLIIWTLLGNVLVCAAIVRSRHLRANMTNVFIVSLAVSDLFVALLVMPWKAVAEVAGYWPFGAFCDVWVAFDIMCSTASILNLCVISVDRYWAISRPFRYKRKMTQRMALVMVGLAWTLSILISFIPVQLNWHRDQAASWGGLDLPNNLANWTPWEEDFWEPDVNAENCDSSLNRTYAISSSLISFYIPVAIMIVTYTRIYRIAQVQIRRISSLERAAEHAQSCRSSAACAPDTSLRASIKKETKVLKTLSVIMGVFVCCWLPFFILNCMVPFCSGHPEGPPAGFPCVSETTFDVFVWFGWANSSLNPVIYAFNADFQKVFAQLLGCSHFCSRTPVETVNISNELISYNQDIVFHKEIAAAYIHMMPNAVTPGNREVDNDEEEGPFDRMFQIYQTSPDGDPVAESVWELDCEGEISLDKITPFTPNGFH
Experimental: Functional studies at human D5 receptors receptors were carried by employing a cAMP Hunter express DRD5 assay kit from DiscoverX. Cells were plated maintained for 24 h at 37°C in a 5% CO2 atmosphere in cell plating reagent provided in the kit.
Cells were treated with the test compounds for 15 min at 37°C and dopamine was added to the corresponding wells and incubated for additional 30 min at 37°C. Cells were then treated with the cAMP detection solution provided with the kit for 1 h and then cAMP solution A was added to each well and incubated for 3 h at RT. cAMP formation was measured by luminescence detection (integration time=500 ms) in a Tecan M1000 Genius Pro reader.
as §1

human D4 receptors = target: T3, human D4 receptors (Homo sapiens, UniProt P21917); assay: Functional assay at human D4 receptors: PatHunter Beta-arrestin express GPCR assay; type: cell-based; conditions: beta-arrestin translocation, Figure 5
T3 sequence (P21917 1-419): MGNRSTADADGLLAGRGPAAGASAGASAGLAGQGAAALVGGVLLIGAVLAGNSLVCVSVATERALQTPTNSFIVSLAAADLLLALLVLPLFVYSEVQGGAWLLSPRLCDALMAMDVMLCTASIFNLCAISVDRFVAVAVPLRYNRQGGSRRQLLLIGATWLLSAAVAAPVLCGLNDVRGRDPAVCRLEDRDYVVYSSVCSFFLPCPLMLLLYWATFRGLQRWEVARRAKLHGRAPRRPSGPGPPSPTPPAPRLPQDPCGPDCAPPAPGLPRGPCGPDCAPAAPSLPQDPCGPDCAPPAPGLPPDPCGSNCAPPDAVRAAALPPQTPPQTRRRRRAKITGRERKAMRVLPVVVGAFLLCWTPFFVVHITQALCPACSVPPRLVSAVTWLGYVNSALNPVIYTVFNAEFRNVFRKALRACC
Experimental: (§2) Functional studies at both human D3 and D4 receptors receptors were carried by employing a PatHunter Beta-arrestin express GPCR assay kit from DiscoverX. Cells were plated maintained for 48 h at 37°C in a 5% CO2 atmosphere in cell plating reagen t provided in the kit.
(§3) Cells were treated with the test compounds for 30 min at 37°C and dopamine was added to the corresponding wells and incubated for additional 90 min at 37°C. Cells were then treated with the working detection solution provided with the kit for 1 h and beta-arrestin translocation was measured by luminescence detection (integration time=500 ms) in a Tecan M1000 Genius Pro reader.
as §1

human D3 receptors = human D3 receptors (Homo sapiens, UniProt P35462); assay: Functional assay at human D3 receptors: PatHunter Beta-arrestin express GPCR assay; type: cell-based; conditions: beta-arrestin translocation, Figure 4
human D3 receptors, sequence (P35462 whole entry): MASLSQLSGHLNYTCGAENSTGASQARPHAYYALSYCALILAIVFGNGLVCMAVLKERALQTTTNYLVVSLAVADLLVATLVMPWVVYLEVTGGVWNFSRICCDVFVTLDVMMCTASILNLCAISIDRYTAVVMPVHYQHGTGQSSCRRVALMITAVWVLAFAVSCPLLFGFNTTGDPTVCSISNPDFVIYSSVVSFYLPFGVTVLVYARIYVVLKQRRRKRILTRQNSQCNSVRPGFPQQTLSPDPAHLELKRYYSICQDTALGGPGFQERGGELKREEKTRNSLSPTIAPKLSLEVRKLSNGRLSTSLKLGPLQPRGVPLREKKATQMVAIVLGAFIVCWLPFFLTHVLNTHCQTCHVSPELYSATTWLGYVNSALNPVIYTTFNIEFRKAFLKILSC
Experimental: as §2, §3, §1

[2] = target: T1, human dopamine D1 receptor; assay: Radioligand binding assay at human D1 receptors ([3H]SCH23390 displacement, membranes); design: purchased Perkin Elmer; conditions: 0.7 nM [3H]SCH23390, orthosteric site
Experimental: Assays were carried out by using plasma membranes (12 µg/well) expressing human dopamine D1 receptor (Perkin Elmer). Membranes were incubated in a Multiscreen FC 96-well plate (Millipore) with 0.7 nM [^3H]SCH23390 (Perkin Elmer) and increasing amounts of the test compound in assay buffer (50 mM Tris-HCl, 5 mM MgCl2; pH=7.4) for 1 h at 27°C. After this time the well content was filtered through a Millipore manifold and membranes washed 4 times with assay buffer. Plate was dried and radioactivity was measured in a Microbeta Trilux liquid scintillation reader (Perkin-Elmer). Non-specific binding was determined in the presence of 1 µM (+)-butaclamol.
Data were normalized to percentage of specific binding and fitted to a 4-parameter logistic equation with Prism v2.1 (GraphPad Inc).

[3] = target: T4, recombinant human D2 receptors (Homo sapiens, UniProt P14416); assay: Functional assay at human D2 receptors: cAMP (HTRF), forskolin-stimulated CHO cells; type: cell-based; conditions: Figure 3
T4 construct: expressed in transfected cells; host or cells: CHO cell line, stably transfected in-house
T4 sequence (P14416 whole entry): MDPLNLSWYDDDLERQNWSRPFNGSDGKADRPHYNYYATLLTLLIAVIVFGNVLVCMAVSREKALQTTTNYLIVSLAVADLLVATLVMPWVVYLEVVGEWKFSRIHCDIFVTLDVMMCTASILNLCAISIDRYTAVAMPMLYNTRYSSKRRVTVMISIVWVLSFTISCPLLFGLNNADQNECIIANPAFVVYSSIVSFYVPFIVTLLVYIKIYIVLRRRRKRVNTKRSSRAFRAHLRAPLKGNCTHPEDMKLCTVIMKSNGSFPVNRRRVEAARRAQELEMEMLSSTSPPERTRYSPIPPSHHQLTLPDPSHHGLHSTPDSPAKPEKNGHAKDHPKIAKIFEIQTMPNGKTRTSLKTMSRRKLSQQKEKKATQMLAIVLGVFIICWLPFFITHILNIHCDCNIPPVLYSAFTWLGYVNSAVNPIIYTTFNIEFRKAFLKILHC
Experimental: Functional studies at D2 receptors were carried out in recombinant human D2 receptors stably transfected in-house in a CHO cell line. Cells were thawed and seeded into a 96-well plate (5×10^3 cells/well) in Optimem containing 500 µM IBMX.
Cells were treated with the test compounds for 5 min at 37°C and dopamine was added to the corresponding wells and incubated for additional 10 min at 37°C. After this time cells were treated with 10 µM forskolin for 5 min at 37°C. Treated cells were lysed and the cAMP concentration was measured by homogeneous time-resolved fluorescence energy transfer (HTRF; Cisbio Kit). HTRF was read in a Tecan M1000 Genius Pro reader (λexcitation = 320 nm, λemission = 620 nm and 665 nm, 30 flashes).
as §1

In the case of `CS(=N)(=O)c1ccc(-c2ccccc2OCF)cc1` (racemic) [Ik, 2-(Fluoromethoxy)-4'-(S-methylsulfonimidoyl)biphenyl], the intrinsic agonist activity [1] is reported as “no potentiation”, the EC50 (human D1 receptors; potency in the presence of dopamine (fixed concentration = EC70)) is reported as 60 nM and the “Potentiation (%) at 5 µM” value (human D1 receptors) is reported as 35%. The “Potentiation (%) at 10 µM” value (human D1 receptors) was 55%, the “functional subtype selectivity against D5 receptor” value (human D5 receptors) was “functional subtype selectivity” and the “functional subtype selectivity against D4 receptor” value (human D4 receptors) was “functional subtype selectivity”. The “functional subtype selectivity against D3 receptor” value (human D3 receptors) was “functional subtype selectivity”, the inhibition at 10 µM [2] was 36% and the “functional subtype selectivity against dopamine D2 receptor” value [3] was “functional subtype selectivity”.
`C[S@@](=N)(=O)c1ccc(-c2ccccc2OCF)cc1` [(R)-Ik, (R)-2-(Fluoromethoxy)-4'-(S-methylsulfonimidoyl)biphenyl] was tested, and the intrinsic agonist activity [1] was “no potentiation”, the “Potentiation (%) at 5 µM” value (human D1 receptors) was 63% and the “functional subtype selectivity against D5 receptor” value (human D5 receptors) was “functional subtype selectivity”. The “functional subtype selectivity against D4 receptor” value (human D4 receptors) was “functional subtype selectivity”, the “functional subtype selectivity against D3 receptor” value (human D3 receptors) was “functional subtype selectivity” and the inhibition at 10 µM [2] was 12%. For the same compound, the “functional subtype selectivity against dopamine D2 receptor” value [3] was “functional subtype selectivity”.
With `C[S@](=N)(=O)c1ccc(-c2ccccc2OCF)cc1` [(S)-Ik, (S)-2-(Fluoromethoxy)-4'-(S-methylsulfonimidoyl)biphenyl] the intrinsic agonist activity [1] was “no potentiation”, the “Potentiation (%) at 5 µM” value (human D1 receptors) was 47% and the “functional subtype selectivity against D5 receptor” value (human D5 receptors) was “functional subtype selectivity”. For the same compound, the “functional subtype selectivity against D4 receptor” value (human D4 receptors) was “functional subtype selectivity”, the “functional subtype selectivity against D3 receptor” value (human D3 receptors) was “functional subtype selectivity” and the inhibition at 10 µM [2] was 6%. The “functional subtype selectivity against dopamine D2 receptor” value [3] was “functional subtype selectivity”.
With `CS(=N)(=O)c1ccc(-c2ccccc2OC(F)F)cc1` (stereo not drawn) [Ia, 2-(Difluoromethoxy)-4'-(S-methylsulfonimidoyl)biphenyl] the “Potentiation (%) at 10 µM” value (human D1 receptors) was 27%.
`CN=S(C)(=O)c1ccc(-c2ccccc2OC(F)F)cc1` (stereo not drawn) [Ib, 2-(Difluoromethoxy)-4'-(N,S-dimethylsulfonimidoyl)biphenyl] was tested, and the “Potentiation (%) at 10 µM” value (human D1 receptors) was 64%.
For `CCS(=N)(=O)c1ccc(-c2ccccc2OC(F)F)cc1` (stereo not drawn) [Ic, 2-(Difluoromethoxy)-4'-(S-ethylsulfonimidoyl)biphenyl], the “Potentiation (%) at 10 µM” value (human D1 receptors) was 39%.
With `CS(=N)(=O)c1ccc(-c2ccccc2OC(F)F)cc1Cl` (stereo not drawn) [Id, 3'-Chloro-2-(difluoromethoxy)-4'-(S-methylsulfonimidoyl)biphenyl] the “Potentiation (%) at 10 µM” value (human D1 receptors) was 25%.
With `CN=S(C)(=O)c1ccc(-c2ccccc2OC(F)F)cc1Cl` (stereo not drawn) [Ie, 3'-Chloro-2-(difluoromethoxy)-4'-(N,S-dimethylsulfonimidoyl)biphenyl] the “Potentiation (%) at 10 µM” value (human D1 receptors) was 33%.
`CS(=N)(=O)c1ccc(-c2ccccc2OC(F)(F)F)cc1Cl` (stereo not drawn) [If, 3'-Chloro-4'-(S-methylsulfonimidoyl)-2-(trifluoromethoxy)biphenyl] was tested, and the “Potentiation (%) at 10 µM” value (human D1 receptors) was 30%.
In the case of `CN=S(C)(=O)c1ccc(-c2ccccc2OC(F)(F)F)cc1Cl` (stereo not drawn) [Ig, 3'-Chloro-2-(trifluoromethoxy)-4'-(N,S-dimethylsulfonimidoyl)biphenyl], the “Potentiation (%) at 10 µM” value (human D1 receptors) is reported as 27%.
With `CN=S(C)(=O)c1ccc(-c2ccccc2OCF)cc1` (stereo not drawn) [Ih, 4'-(N,S-Dimethylsulfonimidoyl)-2-(fluoromethoxy)biphenyl] the “Potentiation (%) at 10 µM” value (human D1 receptors) was 30%.
With `CCS(=N)(=O)c1ccc(-c2ccccc2OCF)cc1` (stereo not drawn) [Ii, 2-(Fluoromethoxy)-4'-(S-ethylsulfonimidoyl)biphenyl] the “Potentiation (%) at 10 µM” value (human D1 receptors) was 54%.
With `CN=S(C)(=O)c1ccc(-c2ccccc2OCF)cc1Cl` (stereo not drawn) [Ij, 3'-Chloro-2-(fluoromethoxy)-4'-(N,S-dimethylsulfonimidoyl)biphenyl] the “Potentiation (%) at 10 µM” value (human D1 receptors) was 35%.
